Patent US20060095978A1, “Screening assay” (priority 2002, published 2006)

Columns and labels:
IFN-γ = assay: Serum IFN-γ in OVA/OVA323-339 stimulated DO11.10 mice (ELISA); assay type: in vivo, mouse; details: for IFN-γ level in pg/ml serum on day 0 after 0 hours: 0 hours (before injection); for increase of INF-γ serum concentration: 90 μg per mouse
Description: (§1) Groups of six, 8-10 weeks old, male or female DO11.10 mice weighing between 20-22 g are obtained as described in Murphy K. M. et al. 1990, Science 250:1720-1722. The animals are maintained in Microvent positive air supply cages (22±1° C., 55±5% relative humidity, 50-70 changes of fresh air/hour and 12 hours day and night cycle) with sawdust bedding. Standard laboratory mouse chow (SNIFF, Soest, Germany) and drinking water is given ad libidum. The animals are used for the study after an adaptation period of 10-14 days and grouped (6 per group) in type II Macrolon cages one day before the experiment.
(§2) Groups of six DO11.10 mice are i.p. injected with 10 μg of ovalbumin (OVA, Sigma, St. Louis, USA) absorbed to 2 mg of Al(OH)3 (Alu Gel S; 2% Al(OH)3, Serva, Heidelberg, FRG) and diluted with saline to a volume of 0.2 ml or various amounts (1, 3, 10, 30, or 90 μg per mouse) of alum-precipitated OVA323-339 peptide (98% purity, piChem R&D, Graz Austria) in 0.2 ml on days 0 and 14. Before and at different time points on days 0 and 14 after the OVA or OVA323-339 peptide administration about 200 μl of blood are collected by puncture of the retro-orbital plexus under ether anesthesia.
The sera are collected and stored frozen at −20° C. until analyzed. […]
Murine IL-2, IFN-γ and IL-4 are analyzed by immunoassays (Quantikine R&D Systems, Minneapolis, Minn., USA). Results are expressed as pg per ml serum expressed as mean±SEM pg of the cytokine indicated per ml serum. Test and control groups are evaluated by Dunn test by Kruskall-Wallis One Way Anova using the SigmaStat® program. […]
Mice of the control group are injected with alum. Blood is collected before and at 2, 4, and 6 hours after the first peptide injection. INF-γ is determined in the sera by an ELISA. Results are expressed as mean pg per ml serum±SEM. […]

IL-2 = assay: Serum IL-2 in OVA323-339 stimulated DO11.10 mice (ELISA); assay type: in vivo, mouse
Description: as §1, §2
The sera are collected and stored frozen at −20° C. until analyzed.
The Neoral solution is diluted further with tap water. Doses of 20, 40, and 80 mg/kg b.w. are administered in a volume of 0.2 ml. Animals in the control group receive the solvent alone.
Murine IL-2, IFN-γ and IL-4 are analyzed by immunoassays (Quantikine R&D Systems, Minneapolis, Minn., USA). Results are expressed as pg per ml serum expressed as mean±SEM pg of the cytokine indicated per ml serum. Test and control groups are evaluated by Dunn test by Kruskall-Wallis One Way Anova using the SigmaStat® program.
Animals of the control group are injected with alum. Blood is collected before and at 2 hours after the peptide injection. IL-2 is determined in the sera by an ELISA. Results are expressed as mean pg per ml serum±SEM.
Blood is collected 2 hours later and IFN-γ, IL-4 and IL-2 levels are determined in the sera by ELISAs. Results are expressed as mean pg per ml serum±SEM.

OVA323-339: peptide derived from chicken ovalbumin containing amino acids from position 323 to 339 (KISQAVHAAHAEINEAG; UniProt P01012 323-339, looked up, fragment)
IFN-γ level in pg/ml serum on day 0 after 0 hours (IFN-γ; 1 μg OVA323-339 i.p.): 11.181 ± 1.288 pg/mL | IFN-γ level in pg/ml serum on day 0 after 2 hours (IFN-γ; 1 μg OVA323-339 i.p.): 18.047 ± 3.944 pg/mL | IFN-γ level in pg/ml serum on day 0 after 4 hours (IFN-γ; 1 μg OVA323-339 i.p.): 41.034 ± 12.394 pg/mL | IFN-γ level in pg/ml serum on day 0 after 6 hours (IFN-γ; 1 μg OVA323-339 i.p.): 15.925 ± 4.594 pg/mL | IFN-γ level in pg/ml serum on day 0 after 0 hours (IFN-γ; 3 μg OVA323-339 i.p.): 8.230 ± 1.430 pg/mL | IFN-γ level in pg/ml serum on day 0 after 2 hours (IFN-γ; 3 μg OVA323-339 i.p.): 62.724 ± 7.939 pg/mL | IFN-γ level in pg/ml serum on day 0 after 4 hours (IFN-γ; 3 μg OVA323-339 i.p.): 63.023 ± 12.462 pg/mL | IFN-γ level in pg/ml serum on day 0 after 6 hours (IFN-γ; 3 μg OVA323-339 i.p.): 25.962 ± 8.858 pg/mL | increase of serum INF-γ levels compared to alum control (IFN-γ; 3 μg, at 2 and 4 hours): about 11 fold | IFN-γ level in pg/ml serum on day 0 after 0 hours (IFN-γ; 10 μg OVA323-339 i.p.): 0.374 ± 0.324 pg/mL | IFN-γ level in pg/ml serum on day 0 after 2 hours (IFN-γ; 10 μg OVA323-339 i.p.): 65.927 ± 23.147 pg/mL | IFN-γ level in pg/ml serum on day 0 after 4 hours (IFN-γ; 10 μg OVA323-339 i.p.): 202.260 ± 48.410 pg/mL | IFN-γ level in pg/ml serum on day 0 after 6 hours (IFN-γ; 10 μg OVA323-339 i.p.): 24.047 ± 9.455 pg/mL | rise in INF-γ serum levels compared to alum alone (IFN-γ; 10 μg OVA323-339 peptide 2 weeks after 10 μg OVA): ~25 fold | IFN-γ level in pg/ml serum on day 0 after 0 hours (IFN-γ; 30 μg OVA323-339 i.p.): 3.988 ± 0.700 pg/mL | IFN-γ level in pg/ml serum on day 0 after 2 hours (IFN-γ; 30 μg OVA323-339 i.p.): 207.727 ± 62.093 pg/mL | IFN-γ level in pg/ml serum on day 0 after 4 hours (IFN-γ; 30 μg OVA323-339 i.p.): 176.807 ± 79.268 pg/mL | IFN-γ level in pg/ml serum on day 0 after 6 hours (IFN-γ; 30 μg OVA323-339 i.p.): 187.325 ± 62.370 pg/mL | increase of serum IFN-γ levels (IFN-γ; 30 μg per mouse, at 2, 4 and 6 hours): 32-38 fold | IFN-γ level in pg/ml serum on day 0 after 2 hours (IFN-γ; 90 μg OVA323-339 i.p.): 407.899 ± 106.513 pg/mL | IFN-γ level in pg/ml serum on day 0 after 4 hours (IFN-γ; 90 μg OVA323-339 i.p.): 413.925 ± 65.247 pg/mL | IFN-γ level in pg/ml serum on day 0 after 6 hours (IFN-γ; 90 μg OVA323-339 i.p.): 514.918 ± 72.758 pg/mL | increase of INF-γ serum concentration (IFN-γ; at 2 and 4 hours): 75 fold | increase of INF-γ serum concentration (IFN-γ; at 6 hours): 94 fold | increase of serum IFN-γ levels (IFN-γ; 10 g (printed) of peptide, at 4 hours): about 40 fold | increase in IFN-γ levels in sera (IFN-γ; first injection of 10 μg peptide, 3 hours after): 50 fold | change in serum INF-γ levels (IFN-γ; primary stimulation, 1 μg per mouse, only at 4 hours): small increase | rise of INF-γ levels after second sensitization (IFN-γ; second sensitization, same dose (10 μg) of peptide): same magnitude | IL-2 levels in pg/ml serum on day 0 after 2 hours (IL-2; 3 μg OVA323-339 i.p.): 327.513 ± 76.331 pg/mL | IL-2 levels in pg/ml serum on day 0 after 2 hours (IL-2; 10 μg OVA323-339 i.p.): 2866.966 ± 361.613 pg/mL | IL-2 levels in pg/ml serum on day 0 after 2 hours (IL-2; 30 μg OVA323-339 i.p.): 2926.303 ± 381.536 pg/mL | IL-2 levels in pg/ml serum on day 0 after 2 hours (IL-2; 90 μg OVA323-339 i.p.): 4841.034 ± 108.352 pg/mL
